# Assay results taken from PMC10377566 (European journal of medicinal chemistry, 2022).
# Several values for one entry are separate records, joined by “and”; a condition that tells them apart may be missing. Equal entries are not always repeated.
# Tests used:
# [1] = system: VIM-expressing sarcoma cell lines HT-1080, RD, GCT; type: cell-based; details: for improvement in potency: VIM-expressing sarcoma cell lines, compared to FiVe1
# HT-1080 cells = assay: Cell proliferation assay; type: cell-based; details: for improvement in selectivity: cell type selectivity (vs MCF-7), compared to FiVe1; for SI (HT-1080 vs MCF-7): selectivity index, ratio of IC50 values HT-1080 and MCF-7
# [2] = system: vimentin (VIM) Ser56 phosphorylation; assay: Western blot of VIM Ser56 phosphorylation in HT-1080, RD and GCT sarcoma cells; type: cell-based; details: 24 h, HT-1080, RD and GCT cells
# [3] = Pharmacokinetic study in mouse; type: in vivo
# [4] = HPLC-based kinetic solubility in DPBS; type: physicochemical; details: for improvement in solubility: compared to FiVe1, DPBS
# [5] = Metabolic stability in mouse liver microsomes; type: in vitro ADME, mouse (CD-1 Mouse)
# [6] = Metabolite identification in incubations with mouse hepatocytes; type: in vitro ADME; details: FiVe1 incubated with mouse hepatocytes, LC-MS/MS, peak area λ = 252–420 nm
# [7] = system: VIM-expressing mesenchymal cancer cell lines; details: anti-proliferative effects compared with cells that lack VIM expression; cited from earlier work
# panel of ~100 kinases = details: concentrations up to 10 μM; cited from earlier work
compound,measurement,setting,value
"COc1cc(Cl)cc(N2CCN(c3cnnc4c(Cl)cccc34)CC2)c1 [Compound 4e, 8-chloro-4-(4-(3-chloro-5-methoxyphenyl)piperazin-1-yl)cinnoline]",improvement in potency,[1],> 20 fold
same,improvement in selectivity,HT-1080 cells,> 10 fold and 19 fold and > 15 fold
same,VIM Ser56 phosphorylation (Western immunoblot),[2],induce VIM Ser56 phosphorylation at 10-fold lower concentration (100 nM)
same,Tlast,[3]; ip 1 mg/kg,4 h
same,improvement in bioavailability,"[3]; oral, compared to FiVe1, assuming dose proportional absorption",~ 4 fold
"Nc1cc(Cl)cc(N2CCN(c3cnnc4c(Cl)cccc34)CC2)c1 [Compound 4i, 3-chloro-5-(4-(8-chlorocinnolin-4-yl)piperazin-1-yl)aniline]",improvement in potency,[1],~ 2 fold
same,improvement in selectivity,HT-1080 cells,~ 2 fold
"Clc1cc(Cl)cc(N2CCN(c3cnnc4c(Cl)cccc34)CC2)c1 [Compound 4a, 8-chloro-4-(4-(3,5-dichlorophenyl)piperazin-1-yl)cinnoline]",improvement in potency,[1],~ 4 fold
"Clc1cccc(N2CCN(c3ccnc4c(Cl)cccc34)CC2)c1 [Compound 10d, 8-chloro-4-(4-(3-chlorophenyl)piperazin-1-yl)quinoline]",VIM Ser56 phosphorylation (Western immunoblot),[2],inactive
"Oc1cc(Cl)cc(N2CCN(c3cnnc4c(Cl)cccc34)CC2)c1 [Compound 4g, 3-chloro-5-(4-(8-chlorocinnolin-4-yl)piperazin-1-yl)phenol]",improvement in potency,[1],> 20 fold
same,improvement in selectivity,HT-1080 cells,> 10 fold
"COc1cccc(N2CCN(c3cnnc4c(Cl)cccc34)CC2)c1 [Compound 4d, 8-chloro-4-(4-(3-methoxyphenyl)piperazin-1-yl)cinnoline]",improvement in potency,[1],> 2 fold
same,improvement in selectivity,HT-1080 cells,> 2 fold
"CN(C)CCCOc1cc(Cl)cc(N2CCN(c3cnnc4c(Cl)cccc34)CC2)c1 [Compound 11c, 3-(3-chloro-5-(4-(8-chlorocinnolin-4-yl)piperazin-1-yl)phenoxy)-N,N-dimethylpropan-1-amine]",improvement in solubility,[4],> 40 fold
"Clc1cc(N2CCCC2)cc(N2CCN(c3cnnc4c(Cl)cccc34)CC2)c1 [Compound 4f, 8-chloro-4-(4-(3-chloro-5-(pyrrolidin-1-yl)phenyl)piperazin-1-yl)cinnoline]",inhibition of mesenchymal cancer cell growth (in words),[1],total loss in activity
"N#Cc1cc(Cl)cc(N2CCN(c3cnnc4c(Cl)cccc34)CC2)c1 [Compound 4b, 3-chloro-5-(4-(8-chlorocinnolin-4-yl)piperazin-1-yl)benzonitrile]",improvement in potency,[1],~ 4 fold
"3-(3-chloro-5-(4-(8-chlorocinnolin-4-yl)piperazin-1-yl)phenoxy)propane-1,2-diol [Compound 11e]",T1/2,[5]; mouse liver microsomes,42.7 min
same,Remaining (T= 60 min),"[5]; mouse liver microsomes, 60 min",35.7%
same,CLint(mic),"[5]; mouse, microsomes",32.5 µL/min/mg
"COc1cc(OC)cc(N2CCN(c3cnnc4c(Cl)cccc34)CC2)c1 [Compound 4c, 8-chloro-4-(4-(3,5-dimethoxyphenyl)piperazin-1-yl)cinnoline]",improvement in potency,[1],> 20 fold
same,improvement in selectivity,HT-1080 cells,> 15 fold
"CC(=O)Nc1cc(Cl)cc(N2CCN(c3cnnc4c(Cl)cccc34)CC2)c1 [Compound 4j, N-(3-chloro-5-(4-(8-chlorocinnolin-4-yl)piperazin-1-yl)phenyl)acetamide]",IC50,"[1]; Homo sapiens, HT-1080, read-out: IC50 values",~10 µM
"C[C@H]1CN(c2cnnc3c(Cl)cccc23)CCN1c1cc(Cl)cc(Cl)c1 [Compound 7a, (S)-8-chloro-4-(4-(3,5-dichlorophenyl)-3-methylpiperazin-1-yl)cinnoline]",loss in antiproliferative potency,[1]; compared with its analog 4a,~ 2 fold
"NCCOc1cc(Cl)cc(N2CCN(c3cnnc4c(Cl)cccc34)CC2)c1 [Compound 11a, 2-(3-chloro-5-(4-(8-chlorocinnolin-4-yl)piperazin-1-yl)phenoxy)ethan-1-amine]",solubility at 16 h,"[4]; DPBS, pH 7.4",68 µM
same,improvement in solubility,[4],> 40 fold
same,SI (HT-1080 vs MCF-7),HT-1080 cells,>5
"COC(=O)CCOc1cc(Cl)cc(N2CCN(c3cnnc4c(Cl)cccc34)CC2)c1 [Compound 11j, methyl 3-(3-chloro-5-(4-(8-chlorocinnolin-4-yl)piperazin-1-yl)phenoxy)propanoate]",SI (HT-1080 vs MCF-7),HT-1080 cells,>20
Clc1cccc(N2CCN(c3cnnc4c(Cl)cccc34)CC2)c1 [FiVe1],% Peak Area,[6],6%
same,cell-based therapeutic index,[7],> 10
same,kinase inhibition,panel of ~100 kinases,not found to be an inhibitor of any cell cycle or cytokinesis-related kinase
same,VIM Ser56 phosphorylation (Western immunoblot),[2],induced Ser56 phosphorylation at 1 μM but not at 100 nM
same,Tlast,[3]; po 25 mg/kg,18 h
"COC(COc1cc(Cl)cc(N2CCN(c3cnnc4c(Cl)cccc34)CC2)c1)OC [Compound 11g, 8-chloro-4-(4-(3-chloro-5-(2,2-dimethoxyethoxy)phenyl)piperazin-1-yl)cinnoline]",IC50,"HT-1080 cells; Homo sapiens, HT-1080, 72 h, read-out: IC50 HT-1080",13.6 ± 1.18 µM
same,SI (HT-1080 vs MCF-7),HT-1080 cells,>2
"CN(C)CCOc1cc(Cl)cc(N2CCN(c3cnnc4c(Cl)cccc34)CC2)c1 [Compound 11b, 2-(3-chloro-5-(4-(8-chlorocinnolin-4-yl)piperazin-1-yl)phenoxy)-N,N-dimethylethan-1-amine]",improvement in solubility,[4],> 40 fold
"COCCOc1cc(Cl)cc(N2CCN(c3cnnc4c(Cl)cccc34)CC2)c1 [Compound 11f, 8-chloro-4-(4-(3-chloro-5-(2-methoxyethoxy)phenyl)piperazin-1-yl)cinnoline]",SI (HT-1080 vs MCF-7),HT-1080 cells,>12
"O=C(O)CCOc1cc(Cl)cc(N2CCN(c3cnnc4c(Cl)cccc34)CC2)c1 [Compound 11k, 3-(3-chloro-5-(4-(8-chlorocinnolin-4-yl)piperazin-1-yl)phenoxy)propanoic acid]",SI (HT-1080 vs MCF-7),HT-1080 cells,>13
"OCCOc1cc(Cl)cc(N2CCN(c3cnnc4c(Cl)cccc34)CC2)c1 [Compound 11d, 2-(3-chloro-5-(4-(8-chlorocinnolin-4-yl)piperazin-1-yl)phenoxy)ethan-1-ol]",improvement in potency,[1],> 3 fold
same,SI (HT-1080 vs MCF-7),HT-1080 cells,>40
